Assay results from US11549946B2, “Method for detecting cholangiocarcinoma cells” (National Tsing Hua University, priority 2019, dated 2023).

Columns and labels:
Huh28 (CCA cell line) = test: Capture test of cell lines by octasaccharide-coated magnetic beads (traditional shaker); assay type: cell-based, human; conditions: 30 mins
Description: The cell lines utilized in this example were SNU478, HuCCT1, Huh28, KKU100, MMNK1, BxPC3, HepG2 and HCT8, SNU478, HuCCT1, Huh28, KKU100, and MMNK1 were supplied by Division of Surgery, National Cheng Kung University Hospital, Taiwan. BxPC3 and HepG2 were supplied by Dr. Kuang Hung Cheng, Institute of Biomedical Science, National Sun Yat-sen University, Taiwan. HCT8 was supplied by Professor Hwan-You Chang, Institute of Life Science, National Tsing Hua University, Taiwan. SNU478, HuCCT1, Huh28 and KKU100 were used as target cells for positive selection, which are CCA cell lines respectively derived from the ampulla of Vater, the intrahepatic-metastasized ascites, the intrahepatic bile duct and the opisthorchis viverrini-related hilar bile duct. For negative selection, MMNK1 (immortalized biliary epithelial), and various types of cancer cell lines, including BxPC3 (pancreatic cancer), HepG2 (liver cancer) and HCT8 (colorectal cancer) were used. […]
In this example, the capture test for the eight cell lines mentioned above was performed with ten octasaccharides to determine their affinity. […] After the incubation, they were washed twice and the amount of captured cells was calculated by a hemocytometer under an inverted microscope. […]

white blood cells (WBCs) = test: On-bench capture test of WBCs using octasaccharide-coated beads; assay type: cell-based; conditions: WBCs versus CCA cells (Huh28)
Protocol: In order to determine whether SCH-45 and SCH-46 can be promising tools for use in clinical examination at an early stage or on the prognostic tracking of cancer, such as blood test, an on-bench capture test of WBCs using SCH-45 and SCH-46 of 100 μM-coated beads was performed in this example.
The whole blood used in this example was provided by National Cheng Kung University Hospital and stored at 4° C. (IRB number: A-ER-103-063 and A-ER-105-109). In order to achieve good efficiency in cancer cell capturing using octasaccharide-coated beads with the blood sample, whole blood was pretreated to remove blood cells, including red blood cells (RBCs) and white blood cells (WBCs). In other words, the whole blood pretreatment process contained a RBC lysis step and a WBC depletion step. […] Whole blood was inoculated with 10^5 Huh28 cells in a 1.5 mL Eppendorf tube. Then, on-bench RBC lysis was performed using a commercial RBC lysis buffer (Cat. 420301, BioLegend®, USA) diluted to 1× working concentration with DI water. The 100 μL of spiked sample was incubated with 1×RBC lysis buffer at a 1:10 volume/volume ratio on a wheeling rotor at 25 rpm, C2 mode for 5 mins, and then centrifuged at 1200 rpm for 5 mins to discard the supernatant. The pellets were washed twice and resuspended in 100 μL of 1× phosphate buffered saline (PBS) buffer. […]

[1] = system: BxPC3 (pancreatic cancer); test: Capture test of cell lines by octasaccharide-coated magnetic beads (traditional shaker); assay type: cell-based; conditions: 30 mins
Description: (§1) The cell lines utilized in this example were SNU478, HuCCT1, Huh28, KKU100, MMNK1, BxPC3, HepG2 and HCT8, SNU478, HuCCT1, Huh28, KKU100, and MMNK1 were supplied by Division of Surgery, National Cheng Kung University Hospital, Taiwan. BxPC3 and HepG2 were supplied by Dr. Kuang Hung Cheng, Institute of Biomedical Science, National Sun Yat-sen University, Taiwan. HCT8 was supplied by Professor Hwan-You Chang, Institute of Life Science, National Tsing Hua University, Taiwan. SNU478, HuCCT1, Huh28 and KKU100 were used as target cells for positive selection, which are CCA cell lines respectively derived from the ampulla of Vater, the intrahepatic-metastasized ascites, the intrahepatic bile duct and the opisthorchis viverrini-related hilar bile duct. For negative selection, MMNK1 (immortalized biliary epithelial), and various types of cancer cell lines, including BxPC3 (pancreatic cancer), HepG2 (liver cancer) and HCT8 (colorectal cancer) were used. Among these cell lines, SNU478, HuCCT1, Huh28, BxPC3 and HCT8 were identically cultured in Roswell Park Memorial Institute 1640 (RPMI 1640, Gibco®, Thermo Fisher Scientific, USA) containing 100 U/mL penicillin and 100 μg/mL streptomycin (Pen Strep, Gibco®, Thermo Fisher Scientific, USA), 10% fetal bovine serum (FBS, Gibco®, Thermo Fisher Scientific, USA). The growth medium for KKU100, MMNK-1 and HepG2 was Dulbecco's modified eagle medium (DMEM, Gibco®, Thermo Fisher Scientific, USA) complemented with the additives described above. All cells were cultured in a humidified incubator at 37° C. under an atmosphere containing 5% CO2.
(§2) In this example, the cells were captured by magnetic beads. The surface of magnetic beads was coated, respectively, with three concentrations of ten kinds of heparan sulfate (HS) octasaccharides, that is, from SCH-43 to SCH-52. The magnetic beads used in this example were Dynabeads® MyOne™ Streptavidin T1 (˜7-10×10^9 beads/mL, Ø=1 μm, Invitrogen, Thermo Fisher Scientific, USA). Briefly, each octasaccharide of 1 μM, 10 μM and 100 μM concentration were first incubated with magnetic beads in a volume/volume ratio of 1:10, and placed on the wheeling rotator (RM-2L INTELLI-mixer, ELMI Ltd., Latvia) at 25 rpm, C2 mode for 30 mins at room temperature. The beads were then collected using a magnetic particle concentrator (MPC, Dynabeads® MPC®-1, Life Technologies) for 2 mins, followed by discarding the supernatant and washing the coated beads three times with 1 mL of deionized (DI) water. Finally, the coated beads were suspended in the same volume of DI water as the initial volume of Dynabeads®.
(§3) In this example, the capture test for the eight cell lines mentioned above was performed with ten octasaccharides to determine their affinity. Therefore, by using the traditional shaker, 2×10^5 cells were incubated with three kinds of concentration (1 μM, 10 μM and 100 μM) of each octasaccharide for 30 mins. After the incubation, they were washed twice and the amount of captured cells was calculated by a hemocytometer under an inverted microscope. Through statistical analysis by ANOVA, the octasaccharides which bound to one cell line with high specificity was compared to other cell lines.

HuCCT1 (CCA cell line) = test: as above; assay type: cell-based; conditions: 30 mins
Description: as §1, §2, §3

[2] = system: MMNK1 (immortalized biliary epithelial); test: as above; assay type: cell-based; conditions: 30 mins
Description: as §1, §2, §3

HCT8 (colorectal cancer) = test: as above; assay type: cell-based; conditions: 30 mins
Description: as §1, §2, §3

KKU100 (CCA cell line) = test: as above; assay type: cell-based; conditions: 30 mins
Description: as §1, §2, §3

SNU478 (CCA cell line) = test: as above; assay type: cell-based; conditions: 30 mins
Description: as §1, §2, §3

HepG2 (liver cancer) = test: as above; assay type: cell-based; conditions: 30 mins
Description: as §1, §2, §3

[3] = beads coated with 1 μM octasaccharide
[4] = beads coated with 10 μM octasaccharide
[5] = beads coated with 100 μM octasaccharide

**Q.** How did the capture rate (Huh28 (CCA cell line); [3]) turn out when O=C(CCCC[C@@H]1SC[C@@H]2NC(=O)N[C@@H]21)NCCCOCCOCCOCCOCCOCCOCCC(=O)NCCCCCO[C@@H]1O[C@H](C(=O)O)[C@@H](O[C@H]2O[C@H](COS(=O)(=O)O)[C@@H](O[C@@H]3O[C@@H](C(=O)O)[C@@H](O[C@H]4O[C@H](COS(=O)(=O)O)[C@@H](O[C@@H]5O[C@H](C(=O)O)[C@@H](O[C@H]6O[C@H](COS(=O)(=O)O)[C@@H](O[C@@H]7O[C@@H](C(=O)O)[C@@H](O[C@H]8O[C@H](COS(=O)(=O)O)[C@@H](O)[C@H](O)[C@H]8NS(=O)(=O)O)[C@H](O)[C@H]7OS(=O)(=O)O)[C@H](O)[C@H]6NS(=O)(=O)O)[C@H](O)[C@H]5OS(=O)(=O)O)[C@H](O)[C@H]4NS(=O)(=O)O)[C@H](O)[C@H]3OS(=O)(=O)O)[C@H](O)[C@H]2NS(=O)(=O)O)[C@H](O)[C@H]1OS(=O)(=O)O [SCH-45] was run?
**A.** 66 ± 6%

**Q.** And the capture rate (Huh28 (CCA cell line); [4])?
**A.** 67 ± 3%

**Q.** And the “ratio of WBC capture rate to CCA” value (white blood cells (WBCs))?
**A.** 5×10^−5

**Q.** And the capture rate [1, 3]?
**A.** 16 ± 6%

**Q.** What about the capture rate [1, 4] of the same molecule?
**A.** 11 ± 3%

**Q.** What about the capture rate [1, 5] of the same molecule?
**A.** 7 ± 3%

**Q.** And the capture rate (HuCCT1 (CCA cell line); [3])?
**A.** 5 ± 1%

**Q.** What about the capture rate (HuCCT1 (CCA cell line); [4]) of the same molecule?
**A.** 5 ± 2%

**Q.** And the capture rate (HuCCT1 (CCA cell line); [5])?
**A.** 4 ± 2%

**Q.** And the capture rate [2, 3]?
**A.** 55 ± 7%

**Q.** What about the capture rate [2, 4] of the same molecule?
**A.** 47 ± 20%

**Q.** What about the capture rate [2, 5] of the same molecule?
**A.** 16±8%

**Q.** And the capture rate (HCT8 (colorectal cancer); [3])?
**A.** 16 ± 3%

**Q.** And the capture rate (HCT8 (colorectal cancer); [4])?
**A.** 13 ± 0%

**Q.** What about the capture rate (HCT8 (colorectal cancer); [5]) of the same molecule?
**A.** 9 ± 2%

**Q.** And the capture rate (KKU100 (CCA cell line); [3])?
**A.** 42 ± 3%

**Q.** What about the capture rate (KKU100 (CCA cell line); [4]) of the same molecule?
**A.** 44 ± 2%

**Q.** What about the capture rate (KKU100 (CCA cell line); [5]) of the same molecule?
**A.** 41 ± 11%

**Q.** What about the capture rate (SNU478 (CCA cell line); [3]) of the same molecule?
**A.** 20 ± 5%

**Q.** And the capture rate (SNU478 (CCA cell line); [4])?
**A.** 17 ± 7%

**Q.** And the capture rate (SNU478 (CCA cell line); [5])?
**A.** 16 ± 8%

**Q.** What about the capture rate (HepG2 (liver cancer); [3]) of the same molecule?
**A.** 14 ± 1%

**Q.** What about the capture rate (HepG2 (liver cancer); [4]) of the same molecule?
**A.** 11 ± 4%

**Q.** What about the capture rate (HepG2 (liver cancer); [5]) of the same molecule?
**A.** 9 ± 6%
